Measured values from ChEMBL document CHEMBL3580659, “One-pot multicomponent synthesis of indole incorporated thiazolylcoumarins and their antibacterial, anticancer and DNA cleavage studies” (2015).

Experiments:
Format in all cases: functional
SK-OV-3 [1] = experiment: Cytotoxicity against human SKOV3 cells assessed as cell growth level at 10 uM after 48 hrs by sulforhodamine B assay
MOLT-4 [2] = experiment: Cytotoxicity against human MOLT4 cells assessed as cell growth level at 1 uM after 48 hrs by sulforhodamine B assay
UACC-257 [3] = experiment: Cytotoxicity against human UACC257 cells assessed as cell growth level at 1 uM after 48 hrs by sulforhodamine B assay
NCI-H522 [4] = experiment: Cytotoxicity against human NCI-H522 cells assessed as cell growth level at 10 uM after 48 hrs by sulforhodamine B assay
OVCAR-4 = experiment: Cytotoxicity against human OVCAR4 cells assessed as cell growth level at 100 nM after 48 hrs by sulforhodamine B assay
MDA-MB-468 [5] = experiment: Cytotoxicity against human MDA-MB-468 cells assessed as cell growth level at 100 uM after 48 hrs by sulforhodamine B assay
CAKI-1 [6] = experiment: Cytotoxicity against human CAKI-1 cells assessed as cell growth level at 100 uM after 48 hrs by sulforhodamine B assay
HT-29 [7] = experiment: Cytotoxicity against human HT-29 cells assessed as cell growth level at 10 uM after 48 hrs by sulforhodamine B assay
MOLT-4 [8] = experiment: Cytotoxicity against human MOLT4 cells after 48 hrs by sulforhodamine B assay; conditions: MOLT-4, 48 h
ACHN = experiment: Cytotoxicity against human ACHN cells assessed as cell growth level at 100 uM after 48 hrs by sulforhodamine B assay
HCC 2998 [9] = experiment: Cytotoxicity against human HCC2998 cells after 48 hrs by sulforhodamine B assay; conditions: HCC 2998, 48 h
MDA-MB-468 [10] = experiment: Cytotoxicity against human MDA-MB-468 cells after 48 hrs by sulforhodamine B assay; conditions: MDA-MB-468, 48 h
Malme-3M = experiment: Cytotoxicity against human MALME-3M cells assessed as cell growth level at 1 uM after 48 hrs by sulforhodamine B assay
HCT-116 [11] = experiment: Cytotoxicity against human HCT116 cells assessed as cell growth level at 100 uM after 48 hrs by sulforhodamine B assay
HCC 2998 [12] = experiment: Cytotoxicity against human HCC2998 cells assessed as cell growth level at 10 nM after 48 hrs by sulforhodamine B assay
CAKI-1 [13] = experiment: Cytotoxicity against human CAKI-1 cells assessed as cell growth level at 10 uM after 48 hrs by sulforhodamine B assay
KM12 [14] = experiment: Cytotoxicity against human KM12 cells after 48 hrs by sulforhodamine B assay; conditions: KM12, 48 h
UACC-257 [15] = experiment: Cytotoxicity against human UACC257 cells after 48 hrs by sulforhodamine B assay; conditions: UACC-257, 48 h
U-251 = experiment: Cytotoxicity against human U251 cells assessed as cell growth level at 100 uM after 48 hrs by sulforhodamine B assay
NCI-H23 [16] = experiment: Cytotoxicity against human NCI-H23 cells assessed as cell growth level at 100 uM after 48 hrs by sulforhodamine B assay
LOX IMVI = experiment: Cytotoxicity against human LOXIMVI cells assessed as cell growth level at 10 nM after 48 hrs by sulforhodamine B assay
RXF 393 = experiment: Cytotoxicity against human RXF393 cells assessed as cell growth level at 1 uM after 48 hrs by sulforhodamine B assay
RPMI-8226 = experiment: Cytotoxicity against human RPMI8226 cells after 48 hrs by sulforhodamine B assay; conditions: RPMI-8226, 48 h
HCC 2998 [17] = experiment: Cytotoxicity against human HCC2998 cells assessed as cell growth level at 100 uM after 48 hrs by sulforhodamine B assay
KM12 [18] = experiment: Cytotoxicity against human KM12 cells assessed as cell growth level at 1 uM after 48 hrs by sulforhodamine B assay
SK-MEL-28 = experiment: Cytotoxicity against human SK-MEL-28 cells assessed as cell growth level at 100 nM after 48 hrs by sulforhodamine B assay
HCT-116 [19] = experiment: Cytotoxicity against human HCT116 cells assessed as cell growth level at 10 nM after 48 hrs by sulforhodamine B assay
CCRF-CEM = experiment: Cytotoxicity against human CCRF-CEM cells assessed as cell growth level at 1 uM after 48 hrs by sulforhodamine B assay
NCI-H522 [20] = experiment: Cytotoxicity against human NCI-H522 cells assessed as cell growth level at 1 uM after 48 hrs by sulforhodamine B assay
SK-OV-3 [21] = experiment: Cytotoxicity against human SKOV3 cells assessed as cell growth level at 100 nM after 48 hrs by sulforhodamine B assay
SF-539 = experiment: Cytotoxicity against human SF539 cells assessed as cell growth level at 1 uM after 48 hrs by sulforhodamine B assay
HCC 2998 [22] = experiment: Cytotoxicity against human HCC2998 cells assessed as cell growth level at 100 nM after 48 hrs by sulforhodamine B assay
SK-MEL-2 = experiment: Cytotoxicity against human SK-MEL-2 cells assessed as cell growth level at 100 uM after 48 hrs by sulforhodamine B assay
OVCAR-8 = experiment: Cytotoxicity against human OVCAR8 cells assessed as cell growth level at 100 nM after 48 hrs by sulforhodamine B assay
UO-31 = experiment: Cytotoxicity against human UO31 cells assessed as cell growth level at 1 uM after 48 hrs by sulforhodamine B assay
NCI-H23 [23] = experiment: Cytotoxicity against human NCI-H23 cells assessed as cell growth level at 1 uM after 48 hrs by sulforhodamine B assay
HT-29 [24] = experiment: Cytotoxicity against human HT-29 cells assessed as cell growth level at 100 uM after 48 hrs by sulforhodamine B assay
HT-29 [25] = experiment: Cytotoxicity against human HT-29 cells assessed as cell growth level at 1 uM after 48 hrs by sulforhodamine B assay
SK-OV-3 [26] = experiment: Cytotoxicity against human SKOV3 cells assessed as cell growth level at 100 uM after 48 hrs by sulforhodamine B assay
[27] = read-out: LC50 (the source's name)
[28] = read-out: pLC50 (the source's name) (converted)

O=c1oc2ccccc2cc1-c1csc(N/N=C/c2c[nH]c3ccccc23)n1
Activity (SK-OV-3 [1]): 62.24%
Activity (MOLT-4 [2]): 20%
Activity (UACC-257 [3]): 82%
Activity (NCI-H522 [4]): -77.8%
Activity (OVCAR-4): 91%
Activity (MDA-MB-468 [5]): -39%
Activity (CAKI-1 [6]): -57%
Activity (HT-29 [7]): 32.14%
GI50 (MOLT-4 [8]; read-out: GI50): 0.4 µM
LC50 (MOLT-4 [8]; read-out: LC50): > 100 µM
TGI (MOLT-4 [8]; read-out: TGI): 3.27 µM
GI50 (MOLT-4 [8]; read-out: pGI50 (converted)): 0.407 µM
LC50 (MOLT-4 [8]; read-out: pLC50 (converted)): > 100 µM
TGI (MOLT-4 [8]; read-out: pTGI (converted)): 3.24 µM
Activity (ACHN): -45%
GI50 (HCC 2998 [9]; read-out: GI50): 2.82 µM
CC50 (HCC 2998 [9]; [27]): > 100 µM
TGI (HCC 2998 [9]; read-out: TGI): 6.8 µM
GI50 (HCC 2998 [9]; read-out: pGI50 (converted)): 2.82 µM
CC50 (HCC 2998 [9]; [28]): > 100 µM
TGI (HCC 2998 [9]; read-out: pTGI (converted)): 6.76 µM
GI50 (MDA-MB-468 [10]; read-out: GI50): 1.52 µM
CC50 (MDA-MB-468 [10]; [27]): > 100 µM
TGI (MDA-MB-468 [10]; read-out: TGI): 3.92 µM
GI50 (MDA-MB-468 [10]; read-out: pGI50 (converted)): 1.51 µM
CC50 (MDA-MB-468 [10]; [28]): > 100 µM
TGI (MDA-MB-468 [10]; read-out: pTGI (converted)): 3.89 µM
Activity (Malme-3M): 93%
Activity (HCT-116 [11]): -66%
Activity (HCC 2998 [12]): 99%
Activity (CAKI-1 [13]): -41.32%
GI50 (KM12 [14]; read-out: GI50): 1.86 µM
CC50 (KM12 [14]; [27]): 9.22 µM
TGI (KM12 [14]; read-out: TGI): 4.14 µM
GI50 (KM12 [14]; read-out: pGI50 (converted)): 1.86 µM
CC50 (KM12 [14]; [28]): 9.12 µM
TGI (KM12 [14]; read-out: pTGI (converted)): 4.17 µM
GI50 (UACC-257 [15]; read-out: GI50): 2.15 µM
CC50 (UACC-257 [15]; [27]): > 100 µM
TGI (UACC-257 [15]; read-out: TGI): 5.63 µM
GI50 (UACC-257 [15]; read-out: pGI50 (converted)): 2.14 µM
CC50 (UACC-257 [15]; [28]): > 100 µM
TGI (UACC-257 [15]; read-out: pTGI (converted)): 5.62 µM
Activity (U-251): -89%
Activity (NCI-H23 [16]): -17%
Activity (LOX IMVI): 91%
Activity (RXF 393): 53%
GI50 (RPMI-8226; read-out: GI50): 0.9 µM
CC50 (RPMI-8226; [27]): > 100 µM
TGI (RPMI-8226; read-out: TGI): 4.79 µM
GI50 (RPMI-8226; read-out: pGI50 (converted)): 0.912 µM
CC50 (RPMI-8226; [28]): > 100 µM
TGI (RPMI-8226; read-out: pTGI (converted)): 4.79 µM
Activity (HCC 2998 [17]): -92%
Activity (KM12 [18]): 95%
Activity (SK-MEL-28): 91%
Activity (HCT-116 [19]): 92%
Activity (CCRF-CEM): 7%
Activity (NCI-H522 [20]): 103%
Activity (SK-OV-3 [21]): 90%
Activity (SF-539): 87%
Activity (HCC 2998 [22]): 97%
Activity (SK-MEL-2): -93%
Activity (OVCAR-8): 107%
Activity (UO-31): 46%
Activity (NCI-H23 [23]): 83%
Activity (HT-29 [24]): -81%
Activity (HT-29 [25]): 89%
Activity (SK-OV-3 [26]): -48%
